# Like-named read-outs stand apart in the source and are kept apart here.
# Key:
# [1] = test system: 3D7 strain of Plasmodium falciparum; assay: In vitro antiplasmodial activity (SYBR Green, 48 h); assay type: cell-based; conditions: read-out: Antiplasmodial Activity IC50
# Experimental: Continuous in vitro cultures of asexual erythrocyte stages of P. falciparum, chloroquine-sensitive 3D7 strain was maintained according to the procedure of Trager and Jensen. Strains were obtained from ATCC, Bei Resources. The host cells were human red blood cells (A+). […] Compound stock solutions were prepared in DMSO at 10 mg/mL (for an extract) and 1 mg/mL (for an isolated compound). Then, the solution is directly diluted in the medium; each test sample was applied in a series of eight 2-fold dilutions in a 96-well plate, starting with 100 µg/mL and 10 µg/mL for the crude extract and purified compounds, respectively, and tested in triplicate. The effect of compounds on the parasite growth was estimated, after 48 h incubation, by using the SYBR Green, a DNA intercalating compound. Artemisinin (Sigma-Aldrich, Machelen, Belgium), at an initial concentration of 100 ng/mL, was used as positive control in all experiments. The half-maximal inhibitory concentration (IC50) values were calculated from graphs.
# different cell lines = test system: different cell lines; set-up: method as in doi:10.1016/j.phytol.2020.10.005; conditions: cited from earlier work
# [2] = Cytotoxicity, Cell Titer-Glo Luminescent Cell Viability Assay; assay type: cell-based; conditions: human
# Experimental: (§1) The cytotoxic effect of the crude extract and compounds thereof on THP-1 human acute leukemia cell line was carried using the Cell Titer-Glo Luminescent Cell Viability Assay (Promega). […] Cells were then incubated in the presence or absence of tested compounds for 3 days at 37 °C in a humidified 5% CO2 atmosphere in a 96-wells plate at a cell density of two thousand cells/well. The cell viability was then evaluated using Cell Titer-Glo Luminescent Cell Viability Assay (Promega) according to the manufacturer’s instructions.
# [3] = test system: THP-1 human acute leukemia cell line; assay: as above; assay type: cell-based; conditions: 3 days
# Experimental: as §1
# [4] = set-up: method as in PMID 21872416; conditions: antiplasmodial activity; read-out: reported IC50; cited from earlier work
# [5] = chloroquine-sensitive 3D7 strain, 48 h incubation, SYBR Green, mean ± S.D. of two, three or four independent experiments
SMILES,"IC50 [1, 5] [µg/mL]",CC50 at 3 days ([2]; Cytotoxic Activity CC50) [µg/mL],also measured
"C[C@@H]1CC[C@H]2[C@@H](C)C(=O)O[C@@H]3O[C@@]4(C)CC[C@@H]1[C@]32OO4 [Artemisinin, reference compound]",0.0067 ± 0.003,–,–
"O=C(O)C[C@](O)(Cc1ccc(O)cc1)C(=O)O [Compound 1, eucomic acid]",0.057 ± 0.031,375 ± 97.3,CC50 (different cell lines): > 100 µM
"COc1cc(O)cc2occ(-c3ccc(O)cc3)c(=O)c12 [Compound 5, isoprunetin]",0.042,221 ± 33.3,–
"O=c1c(-c2ccc(O)c(O)c2)coc2cc(O)cc(O)c12 [Compound 6, Isoluteolin]",0.121 ± 0.048,243 ± 73,–
"O=c1c(-c2ccc(O)cc2)coc2cc(O)cc(O)c12 [Compound 7, genistein]",–,–,"IC50 ([1]; 3D7, 48 h): 7.74 ± 0.802 µg/mL; CC50 at 3 days ([2]; THP-1 cells, 3 days incubation, read-out: Cytotoxic Activity CC50): 116 µg/mL"
"O=C(O)CC(O)C(=O)O (stereo not shown) [Malic acid, malic acid]",–,–,IC50 [4]: > 10 µM

# Further lines, with some results ahead:
"IC50 [1, 5] [µg/mL]",SMILES,CC50 at 3 days ([2]; Cytotoxic Activity CC50) [µg/mL],also measured
0.113 ± 0.074,"COc1cc(OC2OC(CO)C(O)C(O)C2O)cc2occ(-c3ccc(O)cc3)c(=O)c12 (stereo not shown) [Compound 2, 7-O-glucopyranosyl-isoprunetin]",322 ± 20.6,–
7.87 ± 1.72,"O=c1c(-c2ccc(O)cc2)coc2cc(O[C@@H]3O[C@H](CO)[C@@H](O)[C@H](O)[C@H]3O)cc(O)c12 [Compound 3, genistin]",169,Cytotoxic Activity CC50 [3]: 196.3 ± 44.5 µg/mL
> 10,"O=C(O)CC(=O)OC[C@H]1O[C@@H](Oc2cc(O)c3c(=O)c(-c4ccc(O)cc4)coc3c2)[C@H](O)[C@@H](O)[C@@H]1O [Compound 4, malonyl genistin]",182,Cytotoxic Activity CC50 [3]: 223.3 ± 58.6 µg/mL

# — publication PMC8125995, “In Vitro Antiplasmodial and Cytotoxic Activities of Compounds from the Roots of Eriosema montanum Baker f. (Fabaceae)” (Molecules, 2021)
